In patent US12275694B2, “Pharmaceutically acceptable salts of [2-(3-fluoro-5-methane-sulfonylphenoxy)ethyl](propyl)amine and uses thereof” (INTEGRATIVE RESEARCH LABORATORIES SWEDEN AB, priority 2019, dated 2025):
Where two headings read alike, the source gives them in different places.

Key:
[1] = Description: The temperature was 25° C. using step intervals of 10% between 0% and 95% RH in two consecutive cycles.
[2] = Hygroscopicity test, weighed samples kept at varied humidity at 30° C. for one week; type: physicochemical; settings: for Hygroscopicity (in words): any tested relative humidity
Description: After one week, the samples were weighed again and based on the original weight the percentage weight difference was calculated.

[3] = Plasma concentration of the drug in the human clinical study; type: in vivo; settings: 2 hours after administration in the morning, 2.5 mg b.i.d.-10 mg b.i.d., patients
[4] = test system: Parkinson's patients with L-dopa induced dyskinesia (LIDs); assay: Human clinical study, 24-hour patient home diaries, good ON time; type: in vivo; settings: 2.0 mg up to 10 mg such as 2.5, 5.0 or 7.5 mg, compared with an amount equal to or above 10 mg
From the text: Home diaries have gained wide acceptance as endpoints for clinical development of therapeutics aiming to reduce treatment-related motor complications. Motor fluctuations are associated with compromise in activities of daily living and health-related quality of life. In clinical trials performed by Integrative Research Laboratories Sweden AB patients record their 24-hours motor function in 30-minute intervals, beginning at midnight. For each 30-minute interval the patient rates the state he or she has been in for the past 30 minutes; OFF, ON without troublesome dyskinesia or ON with troublesome dyskinesia. The patient also denoted the time when he or she has been asleep.
In general, an “OFF” time reduction or “good ON-time” increase of 1 hour may be considered clinically significant and has been used as an assumption in power calculations in clinical trials. […]
A valid diary is defined as not having more than 2 hours of invalid data entries (4 invalid entries) over a given 24-hour period. An invalid diary entry is defined as more than one entry recorded in each half-hour interval, an unreadable entry, or the absence of an entry in each half-hour interval. […]

## CCCNCCOc1cc(F)cc(S(C)(=O)=O)c1.Cl [hydrochloric acid salt, hydrochloric acid salt of [2-(3-fluoro-5-methanesulfonylphenoxy)-ethyl](propyl)amine]
[1]; 95% relative humidity and 25° C., DVS
  Weight gain: approximately 3%
[1]; high relative humidities
  Hygroscopicity (in words): hygroscopic at high relative humidities

## CCCNCCOc1cc(F)cc(S(C)(=O)=O)c1 [Example 7, [2-(3-fluoro-5-methanesulfonylphenoxy)ethyl](propyl)amine hemi-L-tartrate]
[2]
  Hygroscopicity (in words): very low hygroscopicity
[2]; listed as L-tartaric acid salt
  Hygroscopicity (in words): not hygroscopic at any relative humidities
[2]; even at very high relative humidity such as 73%, 75%, 83% or 97% for 7 days at 30° C.
  Weight change: ≤ 0.3%
[3]
  concentration at 2 h: 50 to 200 nM

## CCCNCCOc1cc(F)cc(S(C)(=O)=O)c1 [Example 2, [2-(3-fluoro-5-methanesulfonylphenoxy)ethyl](propyl)amine]
[4]
  Good ON time (in words): increased the good ON time to a larger extent

## CCCNCCOc1cc(F)cc(S(C)(=O)=O)c1 [Formula IV]
[2]
  Hygroscopicity (in words): not being hygroscopic
[2]; at any humidity such as any relative humidity
  Weight change: ≤ 0.3 % by weight
